Measurements from publication PMC3824154 (Angewandte Chemie (International ed. in English), 2013).

Molecular target: T1, MBP-RebF (Lentzea aerocolonigenes, UniProt Q8KI76)
T1 sequence (Q8KI76 1-170): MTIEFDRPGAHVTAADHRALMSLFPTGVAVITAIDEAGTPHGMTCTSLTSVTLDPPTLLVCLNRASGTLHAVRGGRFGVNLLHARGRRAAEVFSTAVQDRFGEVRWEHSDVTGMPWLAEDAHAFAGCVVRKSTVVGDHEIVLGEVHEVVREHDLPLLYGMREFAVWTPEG
Experiment: FAD reduction activity
Assay type: biochemical

| Structure (SMILES) | FAD reduction activity (turnover) (NADH as electron donor) | FAD reduction activity (turnover) (FAD as electron acceptor) |
| --- | --- | --- |
| Cc1cc2nc3c(=O)[nH]c(=O)nc-3n(C[C@H](O)[C@H](O)[C@H](O)COP(=O)(O)OP(=O)(O)OC[C@H]3O[C@@H](n4cnc5c(N)ncnc54)[C@H](O)[C@@H]3O)c2cc1C [FAD] | retained high activity for the NAD-dependent reduction of FAD to FADH2 |  |
| NC(=O)C1=CN([C@@H]2O[C@H](COP(=O)(O)OP(=O)(O)OC[C@H]3O[C@@H](n4cnc5c(N)ncnc54)[C@H](O)[C@@H]3O)[C@@H](O)[C@H]2O)C=CC1 [NADH] |  | MBP-RebF, which uses NADH to reduce FAD to FADH2 |
